Patent US9789082B2, “Somatostatin receptor subtype 4 (SSTR4) agonists” (Centrexion Therapeutics Corporation, priority 2013, dated 2017)
pEC50: −log10 of the molar value.

Target: human Somatostatin 4 receptor (SSTR4) (Homo sapiens (Human), UniProt P31391)
Test: cAMP assay with human somatostatin 4 receptor (hSSTR4 expressing H4 cells)
Assay type: cell-based
Details: cAMP assay, read-out: SSTR4 agonism EC50
Experimental: Camp Assay Method Description for cAMP Assay with Human Somatostatin 4 Receptor
The activation of the SSTR4 receptor (Gi coupled) causes an inhibition of intracellular cAMP after stimulation with Forskolin, which can be quantifiable by use of a suitable assay Kit and an adequate plate reader. This technique is used to characterize pharmacological effects of the SSTR4 receptor agonists by use of hSSTR4 expressing H4 cells.
Compounds are dissolved and diluted in DMSO. The final test solution contains 1% DMSO. […] Cells are centrifuged and suspended in assay buffer (incl. 1:100 diluted Alexa antibody).
For the assay 5 μl of a cell suspension (approximately 5000 cells/well)—incl. Alexa antibody (diluted 1:100) are added into a 384 well MTP microtitre plate excepting one row or column (depending on the plate layout), which is reserved for the standard curve. Then 2 μl of compound sample is added as concentration response curve (e.g. 1e-5 M to 6e-10 M), usually in triplicates. Each assay contains incubations with vehicle controls instead of compound as controls for non-inhibited cAMP generation (100% CTL; ‘high values’) and incubations with 1 μM Somatosatin as controls for full inhibition and background (0% CTL; […]). […] Then the plates are shaken briefly and incubated for 60 min at room temperature. After 60 min 10 μl of the detection mix is added into all wells followed by an additional incubation period of 1 h. The plates are read in a suitable plate reader.
From this ratio, cAMP concentrations are calculated from standard curve and the EC50 is estimated by least square curve fit program.
The EC50 values were obtained with the aid of the above described cAMP ASSAY.

human Somatostatin 4 receptor (SSTR4), sequence (P31391 whole entry): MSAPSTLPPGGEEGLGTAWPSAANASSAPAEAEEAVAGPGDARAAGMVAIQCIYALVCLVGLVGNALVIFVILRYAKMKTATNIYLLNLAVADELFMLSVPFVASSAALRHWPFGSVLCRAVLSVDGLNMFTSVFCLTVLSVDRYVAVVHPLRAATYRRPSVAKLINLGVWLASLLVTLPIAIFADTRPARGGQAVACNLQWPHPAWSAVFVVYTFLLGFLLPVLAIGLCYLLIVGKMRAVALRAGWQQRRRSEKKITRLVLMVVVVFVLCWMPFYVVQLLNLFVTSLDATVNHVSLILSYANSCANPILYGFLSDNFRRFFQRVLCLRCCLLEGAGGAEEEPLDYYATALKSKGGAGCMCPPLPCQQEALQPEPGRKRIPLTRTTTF

In the case of `CC(NC(=O)[C@H]1[C@@H]2CNC[C@@H]21)c1nn(C)c2ccccc12` (single isomer, unassigned) [Example 112], the pEC50 was 6.93.
Work on `CC(NC(=O)[C@H]1[C@@H]2CNC[C@@H]21)c1nn(C)c2c(Cl)cccc12` (single isomer, unassigned) [Example 115] yielded a pEC50 of 7.67.
For `Cc1cccc2c(C(C)NC(=O)[C@H]3[C@@H]4CNC[C@@H]43)nn(C)c12` (single isomer, unassigned) [Example 118], the pEC50 was 7.41.
`Cc1nc(C(C)NC(=O)[C@H]2[C@@H]3CNC[C@@H]32)c2ccccc2n1` (single isomer, unassigned) [Example 163] showed a pEC50 of 6.47.
`Cc1nc(C(C)NC(=O)[C@H]2[C@@H]3CNC[C@@H]32)c2ccccc2n1` (single isomer, unassigned) [Example 164] showed a pEC50 of 5.18.
Work on `Cc1nc(C(C)NC(=O)[C@H]2[C@@H]3CNC[C@@H]32)c2cccc(C)c2n1` (single isomer, unassigned) [Example 165] yielded a pEC50 of 7.05.
`Cc1nc(C(C)NC(=O)[C@H]2[C@@H]3CNC[C@@H]32)c2cccc(C)c2n1` (single isomer, unassigned) [Example 166] showed a pEC50 of 5.85.
`CC(C)(NC(=O)[C@H]1[C@@H]2CNC[C@@H]21)C1COc2ccccc21` (single isomer, unassigned) [Example 174] showed a pEC50 of 7.00.
Compound `CC(C)(NC(=O)[C@H]1[C@@H]2CNC[C@@H]21)C1COc2ccccc21` (single isomer, unassigned) [Example 175] has a pEC50 of 6.00.
`CC(C)(NC(=O)[C@H]1[C@@H]2CNC[C@@H]21)C1CCOc2ccccc21` (single isomer, unassigned) [Example 179] showed a pEC50 of 7.99.
Compound `CC(C)(NC(=O)[C@H]1[C@@H]2CNC[C@@H]21)C1CCOc2ccccc21` (single isomer, unassigned) [Example 180] has a pEC50 of 6.40.
Work on `Cc1cc(I)ccc1OCC1(NC(=O)[C@H]2[C@@H]3CNC[C@@H]32)CC1` [Example 1] yielded a pEC50 of 6.62.
In the case of `CC(C)(NC(=O)[C@H]1[C@@H]2CNC[C@@H]21)c1ccccc1` [Example 3], the pEC50 was 6.75.
With `CC(C)(CCc1ccccc1)NC(=O)[C@H]1[C@@H]2CNC[C@@H]21` [Example 4] the pEC50 was 6.50.
`CC(C)(Cc1cccc2ccccc12)NC(=O)[C@H]1[C@@H]2CNC[C@@H]21` [Example 5] gave a pEC50 of 7.58.
`Cc1ccccc1CC(C)(C)NC(=O)[C@H]1[C@@H]2CNC[C@@H]21` [Example 6] was tested, and the pEC50 was 7.22.
`CC(C)(NC(=O)[C@H]1[C@@H]2CNC[C@@H]21)C1CCCCC1` [Example 7] showed a pEC50 of 6.36.
`O=C(NC1(c2ccccc2)CCCCC1)[C@H]1[C@@H]2CNC[C@@H]21` [Example 9] was tested, and the pEC50 was 6.27.
`Cc1cc(Br)ccc1OCC(C)(C)NC(=O)[C@H]1[C@@H]2CNC[C@@H]21` [Example 14] showed a pEC50 of 8.14.
For `Cc1cc(C(F)(F)F)ccc1OCC(C)(C)NC(=O)[C@H]1[C@@H]2CNC[C@@H]21` [Example 19], the pEC50 was 6.85.
With `CC(C)(NC(=O)[C@H]1[C@@H]2CNC[C@@H]21)c1cc2ccccc2cn1` [Example 26] the pEC50 was 7.33.
In the case of `Cc1csc(C(C)(C)NC(=O)[C@H]2[C@@H]3CNC[C@@H]32)n1` [Example 27], the pEC50 was 6.55.
For `CC(C)(CCc1ncccc1C(F)(F)F)NC(=O)[C@H]1[C@@H]2CNC[C@@H]21` [Example 29], the pEC50 was 7.22.
In the case of `Cc1cccnc1CCC(C)(C)NC(=O)[C@H]1[C@@H]2CNC[C@@H]21` [Example 30], the pEC50 was 6.69.
For `CC(C)(NC(=O)[C@H]1[C@@H]2CNC[C@@H]21)c1ccc2ccccc2n1` [Example 34], the pEC50 was 7.39.
For `Cn1nc(C(C)(C)NC(=O)[C@H]2[C@@H]3CNC[C@@H]32)c2ncccc21` [Example 35], the pEC50 was 6.43.
Work on `CC(C)(COc1ccncc1C(F)(F)F)NC(=O)[C@H]1[C@@H]2CNC[C@@H]21` [Example 36] yielded a pEC50 of 7.66.
`Cc1nccnc1OCC(C)(C)NC(=O)[C@H]1[C@@H]2CNC[C@@H]21` [Example 37] was tested, and the pEC50 was 6.79.
`CC(C)(COc1ccccc1F)NC(=O)[C@H]1[C@@H]2CNC[C@@H]21` [Example 41] gave a pEC50 of 6.71.
Work on `CC(C)(NC(=O)[C@H]1[C@@H]2CNC[C@@H]21)c1cnc2cccnn12` [Example 46] yielded a pEC50 of 6.62.
Work on `CC(C)(NC(=O)[C@H]1[C@@H]2CNC[C@@H]21)c1nn(Cc2ccccc2)c2ccccc12` [Example 50] yielded a pEC50 of 8.08.
For `CC(C)(COc1ccnc2ccccc12)NC(=O)[C@H]1[C@@H]2CNC[C@@H]21` [Example 54], the pEC50 was 7.18.
`CC(C)(COc1cncc2ccccc12)NC(=O)[C@H]1[C@@H]2CNC[C@@H]21` [Example 55] gave a pEC50 of 7.51.
`CC(C)(COc1cccn2ccnc12)NC(=O)[C@H]1[C@@H]2CNC[C@@H]21` [Example 61] gave a pEC50 of 5.96.
Work on `CC(C)(COc1noc2ccccc12)NC(=O)[C@H]1[C@@H]2CNC[C@@H]21` [Example 62] yielded a pEC50 of 6.69.
`Cc1cncnc1OCC(C)(C)NC(=O)[C@H]1[C@@H]2CNC[C@@H]21` [Example 66] was tested, and the pEC50 was 6.85.
`CC(C)(NC(=O)[C@H]1[C@@H]2CNC[C@@H]21)c1ncc2ccncn12` [Example 69] was tested, and the pEC50 was 6.13.
`Cc1ccccc1OCC(C)(C)NC(=O)[C@H]1[C@@H]2CN(C(C)C)C[C@@H]21` [Example 72] showed a pEC50 of 6.44.
Work on `Cn1nc(C(C)(C)NC(=O)[C@H]2[C@@H]3CNC[C@@H]32)c2cc(F)ccc21` [Example 73] yielded a pEC50 of 7.92.
With `CC(C)(NC(=O)[C@H]1[C@@H]2CNC[C@@H]21)c1c(Cl)nc2sccn12` [Example 81] the pEC50 was 6.84.
With `CC(C)(NC(=O)[C@H]1[C@@H]2CNC[C@@H]21)c1cn2ccccc2n1` [Example 84] the pEC50 was 6.08.
In the case of `CC(C)(NC(=O)[C@H]1[C@@H]2CNC[C@@H]21)c1ccn2ccnc2c1` [Example 85], the pEC50 was 6.84.
`CC(C)(NC(=O)[C@H]1[C@@H]2CNC[C@@H]21)c1ccc2nccn2c1` [Example 86] showed a pEC50 of 7.03.
Compound `CC(C)(NC(=O)[C@H]1[C@@H]2CNC[C@@H]21)c1nn(CC(F)(F)F)c2ccccc12` [Example 96] has a pEC50 of 8.04.
In the case of `CC(C)(NC(=O)[C@H]1[C@@H]2CNC[C@@H]21)c1nn(CC2CC2)c2ccccc12` [Example 97], the pEC50 was 7.91.
`CC(C)n1nc(C(C)(C)NC(=O)[C@H]2[C@@H]3CNC[C@@H]32)c2ccccc21` [Example 98] showed a pEC50 of 7.70.
`CC(C)(NC(=O)[C@H]1[C@@H]2CNC[C@@H]21)c1nn(C2CCOCC2)c2ccccc12` [Example 99] gave a pEC50 of 6.99.
Compound `Cc1cccc2c(C(C)NC(=O)[C@H]3[C@@H]4CNC[C@@H]43)nn(C)c12` (stereo partly drawn) [Example 117] has a pEC50 of 8.21.
Compound `CC(C)(NC(=O)[C@H]1[C@@H]2CNC[C@@H]21)c1ncc2ccc(C(F)(F)F)cn12` [Example 121] has a pEC50 of 7.21.
`CC(C)(NC(=O)[C@H]1[C@@H]2CNC[C@@H]21)c1ncc2cc(C(F)(F)F)ccn12` [Example 122] gave a pEC50 of 5.87.
With `CC(C)(NC(=O)[C@H]1[C@@H]2CNC[C@@H]21)c1nc(Br)c2ccccn12` [Example 123] the pEC50 was 8.82.
With `CC(C)(NC(=O)[C@H]1[C@@H]2CNC[C@@H]21)c1ncc2c(C(F)(F)F)cccn12` [Example 124] the pEC50 was 7.81.
Work on `CC(C)(NC(=O)[C@H]1[C@@H]2CNC[C@@H]21)c1nc(C2=CCOCC2)c2ccccn12` [Example 125] yielded a pEC50 of 7.01.
`CC(C)(NC(=O)[C@H]1[C@@H]2CNC[C@@H]21)c1nc(C(F)(F)F)c2c(F)cccn12` [Example 127] gave a pEC50 of 7.50.
`CC(C)(NC(=O)[C@H]1[C@@H]2CNC[C@@H]21)c1ncc2cnccn12` [Example 131] showed a pEC50 of 6.32.
For `CC(C)(NC(=O)[C@H]1[C@@H]2CNC[C@@H]21)c1nc(C#N)c2ccccn12` [Example 132], the pEC50 was 7.14.
Work on `CC(C)(NC(=O)[C@H]1[C@@H]2CNC[C@@H]21)c1ncc2cccc(F)n12` [Example 135] yielded a pEC50 of 8.12.
`CC(C)(NC(=O)[C@H]1[C@@H]2CNC[C@@H]21)c1ncc2ccc(F)cn12` [Example 136] gave a pEC50 of 8.19.
`Cc1cc2c(C)nccc2c(C(C)(C)NC(=O)[C@H]2[C@@H]3CNC[C@@H]32)n1` [Example 144] was tested, and the pEC50 was 7.32.
For `Cc1nc2ccccn2c1C(C)(C)NC(=O)[C@H]1[C@@H]2CNC[C@@H]21` [Example 147], the pEC50 was 7.88.
`CC(C)(NC(=O)[C@H]1[C@@H]2CNC[C@@H]21)c1ncc2c(OC(F)(F)F)cccn12` [Example 152] was tested, and the pEC50 was 7.58.
In the case of `CC(C)(NC(=O)[C@H]1[C@@H]2CNC[C@@H]21)c1ncnc2c(F)cccc12` [Example 154], the pEC50 was 8.12.
`COc1ccn2c(C(C)(C)NC(=O)[C@H]3[C@@H]4CNC[C@@H]43)nc(C)c2c1` [Example 155] showed a pEC50 of 7.02.
In the case of `Cc1nc(C(C)(C)NC(=O)[C@H]2[C@@H]3CNC[C@@H]32)c2cccc(F)c2n1` [Example 157], the pEC50 was 7.43.
For `Cc1cccn2c([C@@H](C)NC(=O)[C@H]3[C@@H]4CNC[C@@H]43)ncc12` [Example 160], the pEC50 was 7.37.
In the case of `Cc1nc(C(C)NC(=O)[C@H]2[C@@H]3CNC[C@@H]32)c2ccccc2n1` (stereo partly drawn) [Example 161], the pEC50 was 6.12.
